Values joined by “and” are separate entries in the source; they are usually repeats but may differ in a detail not shown here. Equal entries are not always repeated.
What was measured:
[1] = target: cloned rat 5-HT7 receptor (Rattus norvegicus, UniProt P32305); settings: references 2 and 3; cited from earlier work
[2] = target: T1, 5-HT7 receptor (first phase of the concentration-effect curve to 5-CT in the rat bladder) (Rattus norvegicus, UniProt P32305); experiment: Electrically stimulated rat bladder strips: first (high potency) phase of the concentration-effect curve to 5-CT; type: cell-based; settings: for effect on high potency responses to 5-CT: pindolol 1 μM, tropisetron 10 μM, ketanserin 0.1 μM
T1 construct: from tissue; host or cells: rat urinary bladder detrusor strips

[3] = target: T2, 5-HT2B receptor (second phase of the concentration-effect curve to 5-CT in the rat bladder) (Rattus norvegicus, UniProt P30994); experiment: Electrically stimulated rat bladder strips: second (low potency) phase of the concentration-effect curve to 5-CT; type: cell-based; settings: for effect on low potency responses to 5-CT: pindolol 1 μM, tropisetron 10 μM, ketanserin 0.1 μM
T2 construct: from tissue; host or cells: rat urinary bladder detrusor strips

[4] = target: T3, 5-HT1A (Homo sapiens, UniProt P08908); settings: Hoyer, 1989; cited from earlier work
T3 sequence (P08908 1-422): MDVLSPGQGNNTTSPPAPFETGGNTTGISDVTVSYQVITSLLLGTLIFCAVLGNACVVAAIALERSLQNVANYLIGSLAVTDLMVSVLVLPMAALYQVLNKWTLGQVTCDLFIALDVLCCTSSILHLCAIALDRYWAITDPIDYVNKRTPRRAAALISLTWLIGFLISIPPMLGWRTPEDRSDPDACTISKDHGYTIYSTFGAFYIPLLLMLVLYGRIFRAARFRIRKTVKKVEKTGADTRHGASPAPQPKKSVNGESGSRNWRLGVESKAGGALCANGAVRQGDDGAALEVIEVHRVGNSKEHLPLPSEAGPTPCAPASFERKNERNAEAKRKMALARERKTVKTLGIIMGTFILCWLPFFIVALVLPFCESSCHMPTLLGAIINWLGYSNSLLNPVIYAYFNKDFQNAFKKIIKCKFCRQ

[5] = target: cloned human 5-HT7 receptor (Homo sapiens, UniProt P34969); settings: cited from earlier work; for pK1: cloned human 5-HT7 receptor, references 1 and 4
[6] = target: cloned rat 5-HT2B receptor (Rattus norvegicus, UniProt P30994); settings: cited from earlier work
[7] = target: T4, 5-HT2C (Homo sapiens, UniProt P28335); settings: Hoyer, 1989; Hoyer et al., 1994; cited from earlier work
T4 sequence (P28335 33-458): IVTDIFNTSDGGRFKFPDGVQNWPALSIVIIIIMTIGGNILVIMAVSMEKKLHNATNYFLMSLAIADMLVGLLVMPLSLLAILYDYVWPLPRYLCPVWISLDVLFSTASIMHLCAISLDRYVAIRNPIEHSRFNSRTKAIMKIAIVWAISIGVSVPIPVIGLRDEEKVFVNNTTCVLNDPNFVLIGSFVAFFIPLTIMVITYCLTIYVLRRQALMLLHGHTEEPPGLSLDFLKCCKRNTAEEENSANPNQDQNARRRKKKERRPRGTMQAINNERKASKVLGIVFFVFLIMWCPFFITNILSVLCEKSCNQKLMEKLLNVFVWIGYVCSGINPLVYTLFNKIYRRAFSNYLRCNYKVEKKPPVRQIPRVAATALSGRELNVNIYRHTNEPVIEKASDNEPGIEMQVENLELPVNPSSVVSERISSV

[8] = target: 5-HT2A (Homo sapiens, UniProt P28223); settings: Hoyer, 1989; Hoyer et al., 1994; cited from earlier work
[9] = target: 5-HT1B (Rattus norvegicus, UniProt P28564); settings: Hoyer, 1989; Hoyer et al., 1994; cited from earlier work
[10] = target: 5-HT1E (Homo sapiens, UniProt P28566); settings: Adham et al., 1993; cited from earlier work
[11] = test system: rat urinary bladder strips; experiment: Isolated rat urinary bladder strips: agonist-evoked increase of electrically evoked, nerve-mediated contractions; type: cell-based; settings: for effect on the magnitude of electrically evoked contractions: agonist alone, electrically stimulated rat bladder strips; for ability to modify the effects of 5-HT: 10 μM
Source text: 5-HT receptors in the rat urinary bladder which, when activated by serotonin agonists, cause increases in the magnitude of nerve-mediated contractions, were identified and characterized pharmacologically using isolated strips of rat bladder.
Urinary bladders were isolated from female CD rats (Charles Rivers, 250-300 g). The bladder base (lower third) was removed and the detrusor region was opened into a flat sheet by cutting from the basal opening to the apex. This was cut into quadrants, each of which was attached on its lateral edges by two tissue clips and suspended in a 5 ml tissue bath containing Krebs' solution (pH 7.4 37° C.) of the following composition (mM): NaCl (118), KCl (4.9), NaHCO3 (25), MgCl2 (1.2), NaHPO4 (1.0), CaCl2 (2.5), glucose (11) and aerated continuously with 95% O2/5% CO2. Except in initial experiments, prazosin (0.1 μM), idazoxan (0.3 μM), and indomethacin (10 μM) were included routinely in the buffer to block α1- and α2-adrenoceptors and to prevent the formation of prostaglandins, respectively. After allowing 30 min for equilibration, bladder strips were placed under 1.0 g resting tension, readjusted 6 times over the next 30 min. For most experiments contractile responses were evoked by transmural electrical impulses delivered by Grass S-88 (Grass Instruments, City, Mass.) stimulators (single pulses, 0.1 Hz, 1 ms pulse width, 90 V) through a pair of stainless steel electrodes. Contractions were measured using isometric force transducers (Radnotti Instruments, Monrovia, Calif.) and recorded using MacLab software (AD Instruments, Milford, Mass.).
Bladder strips, in Krebs' solution containing antagonist or vehicle, were stimulated at supramaximal voltage until contractions of consistent magnitude were obtained (ca. 30 min). During this period the Krebs' solution was exchanged at 15 min intervals. Cumulative concentration-effect curves were then constructed by administering 5-carboxamidotryptamine (5-CT) or other agonists in 0.5 log M increments. Responses are expressed as a percent of control, and represent agonist-evoked increases in the magnitude of the electrically evoked contractions relative to that in the absence of agonist (“control”, taken as 100%). […] Therefore, only a single agonist concentration-effect curve was constructed in each tissue.
Concentration-effect curves were fitted (Kaleidagraph, Synergy Software, PCS Inc., Reading PA) to 1-site or 2-site models of agonism as represented by the following equations:
(1-site): Effect=Emax[A]^n/[A]^n+EC50^n;
(2-site): Effect=(Emax^a[A]/[A]+EC50^a+(Emax^b[A]/[A]+EC50^b),
where Emax represents the maximum effect of the agonist, [A] is the agonist molar concentration, EC50 is the concentration of agonist eliciting half its maximum effect, n is the slope factor, and the italicized superscripts (a and b) denote values for the first and second phase of the biphasic curve. Antagonist pKB values were determined using the formula described by Furchgott (1972): pKB=log (agonist concentration ratio −1/antagonist concentration [M]. In some instances, pKB values were determined according to the method of Arunlakshana and Schild (1959), in which the slope of the Schild plot was constrained to unity. Concentration ratios for Schild analyses were calculated from mean EC50 values for the agonist in the absence and presence of the antagonist in experiments from n different animals.

[12] = test system: rat bladder strips (postjunctional response to α,β-methylene-ATP); type: cell-based; settings: 0.1 and 10 μM; 5 minute incubation; tetrodotoxin 0.1 μM; α,β-methylene-ATP 3 μM
[13] = target: T5, 5-HT1F (Homo sapiens, UniProt P30939); settings: Adham et al., 1993; cited from earlier work
T5 sequence (P30939 1-366): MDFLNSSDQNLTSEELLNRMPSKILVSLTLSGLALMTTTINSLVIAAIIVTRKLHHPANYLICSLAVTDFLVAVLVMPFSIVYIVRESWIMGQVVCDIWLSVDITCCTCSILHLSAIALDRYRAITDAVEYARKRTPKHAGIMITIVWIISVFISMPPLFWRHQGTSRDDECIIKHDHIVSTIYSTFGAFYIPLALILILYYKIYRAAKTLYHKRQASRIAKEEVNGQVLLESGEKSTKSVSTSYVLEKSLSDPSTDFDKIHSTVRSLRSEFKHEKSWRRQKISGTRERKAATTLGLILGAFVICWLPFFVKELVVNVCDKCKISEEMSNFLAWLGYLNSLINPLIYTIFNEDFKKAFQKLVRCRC

[14] = target: 5-HT6 (Rattus norvegicus, UniProt P31388); settings: Hoyer et al., 1994; cited from earlier work
[15] = test system: 5-HT1D; settings: Hoyer, 1989; Hoyer et al., 1994; cited from earlier work
[16] = test system: 5-HT5A; settings: Hoyer et al., 1994; cited from earlier work
[17] = bladder pKB versus published values
[18] = bladder pKB versus published value

cloned rat 5-HT7 receptor, sequence (P32305 whole entry): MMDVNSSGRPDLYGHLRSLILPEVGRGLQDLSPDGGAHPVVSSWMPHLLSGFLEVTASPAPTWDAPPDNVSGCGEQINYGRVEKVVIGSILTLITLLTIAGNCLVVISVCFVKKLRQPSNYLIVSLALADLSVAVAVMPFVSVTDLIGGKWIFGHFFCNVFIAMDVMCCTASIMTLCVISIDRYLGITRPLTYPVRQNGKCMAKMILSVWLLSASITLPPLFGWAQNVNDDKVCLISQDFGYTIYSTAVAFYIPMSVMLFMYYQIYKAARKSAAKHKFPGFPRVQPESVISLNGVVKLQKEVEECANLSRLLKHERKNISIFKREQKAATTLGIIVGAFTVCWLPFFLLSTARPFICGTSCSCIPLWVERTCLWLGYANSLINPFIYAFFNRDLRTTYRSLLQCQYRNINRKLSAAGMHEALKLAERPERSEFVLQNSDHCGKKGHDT
T1 sequence (P32305 whole entry): as above
T2 sequence (P30994 whole entry): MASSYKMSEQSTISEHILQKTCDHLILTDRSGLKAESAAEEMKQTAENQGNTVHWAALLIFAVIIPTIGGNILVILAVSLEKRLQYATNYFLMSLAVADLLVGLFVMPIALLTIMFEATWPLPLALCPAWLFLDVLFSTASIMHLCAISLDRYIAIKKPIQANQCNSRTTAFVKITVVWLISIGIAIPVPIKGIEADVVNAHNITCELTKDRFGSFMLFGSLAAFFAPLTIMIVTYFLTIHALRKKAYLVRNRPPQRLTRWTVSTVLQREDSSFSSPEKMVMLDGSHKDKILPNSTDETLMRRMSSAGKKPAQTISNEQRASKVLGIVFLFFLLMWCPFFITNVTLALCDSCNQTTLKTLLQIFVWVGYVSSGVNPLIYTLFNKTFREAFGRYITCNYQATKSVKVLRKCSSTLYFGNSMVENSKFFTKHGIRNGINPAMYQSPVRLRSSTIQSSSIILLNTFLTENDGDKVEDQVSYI
5-HT1B, sequence (P28564 whole entry): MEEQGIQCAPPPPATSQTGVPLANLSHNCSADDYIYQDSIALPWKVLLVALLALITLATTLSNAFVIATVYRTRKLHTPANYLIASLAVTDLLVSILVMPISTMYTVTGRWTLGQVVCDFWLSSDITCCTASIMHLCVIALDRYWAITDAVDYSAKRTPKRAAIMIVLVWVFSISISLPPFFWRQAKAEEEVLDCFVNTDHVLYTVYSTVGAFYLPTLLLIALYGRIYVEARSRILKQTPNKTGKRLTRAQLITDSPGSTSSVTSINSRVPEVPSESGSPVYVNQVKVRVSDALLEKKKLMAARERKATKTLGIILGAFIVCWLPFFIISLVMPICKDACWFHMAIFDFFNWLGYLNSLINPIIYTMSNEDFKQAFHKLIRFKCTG
cloned human 5-HT7 receptor, sequence (P34969 1-445 isoform P34969-2): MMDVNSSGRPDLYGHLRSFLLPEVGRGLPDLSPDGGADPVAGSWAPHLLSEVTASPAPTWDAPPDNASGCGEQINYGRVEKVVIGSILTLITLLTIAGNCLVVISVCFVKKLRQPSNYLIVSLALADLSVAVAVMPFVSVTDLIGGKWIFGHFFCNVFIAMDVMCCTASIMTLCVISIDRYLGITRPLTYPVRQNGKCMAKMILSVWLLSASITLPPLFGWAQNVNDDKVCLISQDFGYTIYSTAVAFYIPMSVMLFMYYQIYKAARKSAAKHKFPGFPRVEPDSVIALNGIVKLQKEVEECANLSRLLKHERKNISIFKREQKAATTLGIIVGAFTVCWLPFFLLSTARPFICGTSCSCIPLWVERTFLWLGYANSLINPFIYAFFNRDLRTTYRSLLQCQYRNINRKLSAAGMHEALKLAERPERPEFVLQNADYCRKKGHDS
5-HT2A, sequence (P28223 whole entry, species assumed): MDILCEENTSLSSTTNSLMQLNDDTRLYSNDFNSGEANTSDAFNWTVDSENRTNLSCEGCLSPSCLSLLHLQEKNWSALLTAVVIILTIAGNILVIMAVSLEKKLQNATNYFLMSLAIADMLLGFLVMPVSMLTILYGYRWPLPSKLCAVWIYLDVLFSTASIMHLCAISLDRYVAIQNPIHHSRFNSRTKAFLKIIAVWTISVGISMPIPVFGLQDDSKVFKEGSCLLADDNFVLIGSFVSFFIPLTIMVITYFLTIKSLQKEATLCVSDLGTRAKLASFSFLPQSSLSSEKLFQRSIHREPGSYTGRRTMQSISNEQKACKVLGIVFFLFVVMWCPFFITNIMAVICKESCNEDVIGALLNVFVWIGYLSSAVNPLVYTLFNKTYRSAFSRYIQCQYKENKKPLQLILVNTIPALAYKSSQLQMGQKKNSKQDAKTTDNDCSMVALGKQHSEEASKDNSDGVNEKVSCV
cloned rat 5-HT2B receptor, sequence (P30994 whole entry): as the sequence (P30994 whole entry) above
5-HT1E, sequence (P28566 whole entry): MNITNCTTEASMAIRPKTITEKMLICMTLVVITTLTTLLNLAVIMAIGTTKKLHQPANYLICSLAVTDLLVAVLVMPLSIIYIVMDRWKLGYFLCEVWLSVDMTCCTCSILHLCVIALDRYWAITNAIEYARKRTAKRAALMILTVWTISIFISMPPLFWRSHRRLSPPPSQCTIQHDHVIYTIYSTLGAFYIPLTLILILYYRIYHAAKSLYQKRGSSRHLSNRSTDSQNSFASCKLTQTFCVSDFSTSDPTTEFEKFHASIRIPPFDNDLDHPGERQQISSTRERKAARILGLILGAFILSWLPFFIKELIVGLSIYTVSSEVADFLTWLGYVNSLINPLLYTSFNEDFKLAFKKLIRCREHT
5-HT6, sequence (P31388 whole entry): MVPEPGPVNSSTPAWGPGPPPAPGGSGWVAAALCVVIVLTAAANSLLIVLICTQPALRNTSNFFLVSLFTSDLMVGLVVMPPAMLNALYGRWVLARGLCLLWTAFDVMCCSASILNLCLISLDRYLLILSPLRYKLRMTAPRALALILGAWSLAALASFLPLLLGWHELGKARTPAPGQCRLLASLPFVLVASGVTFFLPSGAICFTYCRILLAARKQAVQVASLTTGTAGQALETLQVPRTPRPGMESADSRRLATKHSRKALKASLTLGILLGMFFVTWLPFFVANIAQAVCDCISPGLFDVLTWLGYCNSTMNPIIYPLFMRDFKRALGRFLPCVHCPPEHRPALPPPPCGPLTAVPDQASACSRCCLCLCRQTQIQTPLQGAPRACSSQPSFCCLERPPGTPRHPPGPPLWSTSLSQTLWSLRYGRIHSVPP

In the case of `CC(C)NCC(O)COc1cccc2[nH]ccc12` (single isomer, unassigned) [pindolol], the pK1 [1] is listed as under 6, the “effect on high potency responses to 5-CT” value [2] is listed as “not affected” and the “effect on low potency responses to 5-CT” value [3] is listed as “not affected”.

In the case of `c1ccc2c(N3CCNCC3)cccc2c1` [1-NP, 1-(1-naphthyl)piperazine], the “pKB, 5-HT1A” value [4] is given as 7.2, the “pKB, 5-HT7” value ([5]; Bard et al., 1993) is given as 7.1 and the pK1 [5] is given as 7.1. The “pKB, 5-HT2B” value ([6]; Wainscott et al., 1993) was 8.3, the pK1 ([6]; cloned rat 5-HT2B receptor, reference 1 (Wainscott et al., 1993)) was 8.3-8.7 and the “pKB, 5-HT2C” value [7] was 8.2. For the same molecule, the “effect on the high potency (first) phase of the curve” value ([2]; 0.1 μM) was “no effect”, the “rightward shift of the first phase of the response to 5-CT” value ([2]; 1.0 μM) was 6.8 ±0.54 fold and the Kb ([2]; pKB, inhibition of the first phase of the concentration-effect curve to 5-CT in the rat bladder, antagonists tested in the presence of 0.1 μM 1-NP) was 0.158 µM and 0.251 µM. For the same molecule, the Kb [3] was 0.00316 µM, the “shift of the low potency (second) phase of the concentration-effect curve” value ([3]; 0.1 μM) was 100 fold and the “second-phase affinity greater than affinity for 5-HT1A, 5-HT1B, 5-HT1E, 5-HT2A and 5-HT7 subtypes” value [3, 17] was “at least 10 fold”. For the same molecule, the “slope of Schild analysis” value ([3]; second phase, 0.01 to 1.0 μM) was “unit slope”, the “pKB, 5-HT2A” value [8] was 7.2 and the “pKB, 5-HT1B” value [9] was 6.6. For the same molecule, the “pKB, 5-HT1E” value [10] was 6.7.

For `NCCc1c[nH]c2ccc(C(N)=O)cc12` [5-CT, 5-carboxamidotryptamine], the EC50 [2] was 0.00158 µM, the EC50 [3] was 0.158 µM and the “difference in EC50 values between first and second phase” value [11] was 100 fold. For the same molecule, the “effect on the magnitude of electrically evoked contractions” value [11] was “mimicked” and the “effect on the magnitude of a subsequent contraction to α,β-methylene-ATP” value [12] was “failed to significantly modify”.

For `NCCc1c[nH]c2ccc(O)cc12` [5-HT, 5-hydroxytryptamine], the “effect on the magnitude of electrically evoked contractions” value [11] was “marked increases”.

In the case of `COc1ccc2[nH]cc(CCN)c2c1` [5-MeOT], the “effect on the magnitude of electrically evoked contractions” value [11] is reported as “mimicked”.

For `CCCN(CCC)C1CCc2cccc(O)c2C1` (stereo not drawn) [8-OH-DPAT], the “ability to modify the effects of 5-HT” value [11] was “failure” and the “effect on the magnitude of electrically evoked contractions” value [11] was “inactive”.

With `CC(C)n1c(=O)n(C(=O)NC2CC3CCC(C2)N3C)c2ccccc21` (stereo not drawn) [BIMU-8] the “ability to modify the effects of 5-HT” value [11] was “failure” and the “effect on the magnitude of electrically evoked contractions” value [11] was “inactive”.

For `CCCN(CCC)CCc1c[nH]c2ccc(C(N)=O)cc12` [DP-5-CT], the “effect on the magnitude of electrically evoked contractions” value [11] was “mimicked”.

In the case of `CC(C)n1cc2c3c(cccc31)C1C[C@@H](C(=O)N[C@H]3CCC[C@H]3O)CN(C)[C@@H]1C2` (stereo partly drawn) [LY215840], the pK1 [5] is listed as 7.8 and the pKB ([2]; inhibition of the first phase of the concentration-effect curve to 5-CT in the rat bladder, antagonists tested in the presence of 0.1 μM 1-NP) is listed as 8.2.

In the case of `O=C(c1ccc(F)cc1)C1CCN(CCn2c(=O)[nH]c3ccccc3c2=O)CC1` [ketanserin], the pK1 [1] is listed as 5.6, the “effect on high potency responses to 5-CT” value [2] is listed as “not affected” and the “effect on low potency responses to 5-CT” value [3] is listed as “not affected”.

In the case of `CN1C[C@@H](NS(=O)(=O)N(C)C)C[C@@H]2c3cccc4c3c(cn4C)C[C@H]21` [mesulergine], the “pKB, 5-HT1A” value [4] is listed as 6.2, the “pKB, 5-HT1F” value [13] is listed as under 5 and the “pKB, 5-HT2A” value [8] is listed as 9.1. The “pKB, 5-HT6” value [14] was 5.8 and the “pKB, 5-HT1B” value [9] was 4.9.

In the case of `CSc1ccc2c(c1)C(N1CCN(C)CC1)Cc1ccccc1S2` (stereo not drawn) [methiothepin], the “pKB, 5-HT1F” value [13] is given as 6.2, the “pKB, 5-HT1D” value [15] is given as 7.3 and the “pKB, 5-HT1B” value [9] is given as 7.3. For the same molecule, the “pKB, 5-HT5A” value [16] was 7.0 and the “pKB, 5-HT1E” value [10] was 6.7.

For `O=C(CCCN1CCC2(CC1)C(=O)NCN2c1ccccc1)c1ccc(F)cc1` [spiperone], the “pKB, 5-HT2C” value [7] is given as 5.9, the “first-phase affinity greater than that for the 5-HT2C receptor subtype” value [2, 18] is given as about 30 fold and the “first-phase affinity lower than that for the 5-HT2A receptor subtype” value [2, 18] is given as about 30 fold. The “first-phase affinity greater than that for 5-HT1B, 5-HT1D, 5-HT5A and 5-HT2B receptor subtype” value [2, 17] was “at least 100 fold”, the “pKB, 5-HT1D” value [15] was 4.8 and the “pKB, 5-HT1B” value [9] was 4.4. For the same molecule, the “pKB, 5-HT5A” value [16] was 5.6.

In the case of `CN1[C@@H]2CC[C@H]1C[C@@H](OC(=O)c1c[nH]c3ccccc13)C2` [tropisetron], the pK1 [1] is given as under 4.5, the “effect on high potency responses to 5-CT” value [2] is given as “not affected” and the “effect on low potency responses to 5-CT” value [3] is given as “not affected”.

For `CC(N)Cc1c[nH]c2ccc(O)cc12` (stereo not drawn) [α-Me-5-HT, α-methyl-5-hydroxytryptamine], the “effect on the magnitude of electrically evoked contractions” value [11] was “mimicked”.

— patent US20030032580A1, “Use of agonists or antagonists of the 5-HT7 receptor to treat disorders of the bladder” (Synaptic Pharmaceutical Corporation, priority 1999, published 2003)
